Data published in patent US20060111350A1, “Solid forms of linezolid and processes for preparation thereof” (priority 2004, published 2006).

Assays:
[1] = below about 85°; cited from earlier work
[2] = Stability and hygroscopicity of linezolid Form VI stored at 0-100% relative humidity; format: physicochemical
Procedure: The stability and hygroscopicity of linezolid Form VI was tested by storing it for 19 days at a relative humidity of between 0 and 100% at room temperature.

[3] = Thermal stability of crystal forms upon heating (Table 4)
[4] = Stability of linezolid Form X stored at 0-100% relative humidity; format: physicochemical
Procedure: The stability of linezolid Form X was tested by storing it for 8 days at a relative humidity of between 0 and 100% at room temperature.

[5] = 19 days, room temperature, relative humidity 80%
[6] = 19 days, room temperature, relative humidity 100%
[7] = 8 days, room temperature, relative humidity 100%

SMILES: CC(=O)NC[C@H]1CN(c2ccc(N3CCOCC3)c(F)c2)C(=O)O1 [Form II]
- Relative stability of the crystal form [1]: most stable form

SMILES: CC(=O)NC[C@H]1CN(c2ccc(N3CCOCC3)c(F)c2)C(=O)O1 [Form VI, (S)—N-[[3-[3-Fluoro-4-(4-morpholinyl)phenyl]-2-oxo-5-oxazo-lidinyl]methyl]-acetamide]
- Solvent content ([2]; 19 days, room temperature, relative humidity 0%): 0.4%
- Solvent content ([2]; 19 days, room temperature, relative humidity 20%): 0.4%
- Solvent content ([2]; 19 days, room temperature, relative humidity 40%): 0.4%
- Solvent content ([2]; 19 days, room temperature, relative humidity 60%): 0.3%
- Crystal Form [2, 5]: VI + Amorphous
- Solvent content [2, 5]: 31.7%
- Crystal Form [2, 6]: Amorphous
- Solvent content [2, 6]: 53.2%
- Solvent content ([2]; As is (before storage)): 0.9%
- water content ([2]; As is (before storage)): 0.7%
- Form conversion ([2]; at 80-100% RH): converts to Amorphous Linezolid
- Stability and hygroscopicity ([2]; between 0-60% RH): stable and non-hygroscopic
- Hygroscopicity ([2]; on high relative humidity): hygroscopic

SMILES: CC(=O)NC[C@H]1CN(c2ccc(N3CCOCC3)c(F)c2)C(=O)O1 [Form V, (S)—N-[[3-[3-Fluoro-4-(4-morpholinyl)phenyl]-2-oxo-5-oxazo-lidinyl]methyl]-acetamide]
- Thermal stability (transformation into other forms upon heating) ([3]; heating at about 60° C. to about 130° C.): thermally stable

SMILES: CC(=O)NC[C@H]1CN(c2ccc(N3CCOCC3)c(F)c2)C(=O)O1 [Form TIII, (S)—N-[[3-[3-Fluoro-4-(4-morpholinyl)phenyl]-2-oxo-5-oxazo-lidinyl]methyl]-acetamide]
- Crystal form after heating ([3]; heating temp. 60 °C, listed as TIII): TIII
- Crystal form after heating ([3]; heating temp. 130 °C): TIII

SMILES: CC(=O)NC[C@H]1CN(c2ccc(N3CCOCC3)c(F)c2)C(=O)O1 [Form X, (S)—N-[[3-[3-Fluoro-4-(4-morpholinyl)phenyl]-2-oxo-5-oxazo-lidinyl]methyl]-acetamide]
- Crystal form after heating ([3]; heating temp. 60 °C, listed as X): Amorphous
- Solvent content ([4]; 8 days, room temperature, relative humidity 0%): 1.6%
- Solvent content ([4]; 8 days, room temperature, relative humidity 20%): 1.5%
- Solvent content ([4]; 8 days, room temperature, relative humidity 40%): 1.4%
- Solvent content ([4]; 8 days, room temperature, relative humidity 60%): 2.0%
- Solvent content ([4]; 8 days, room temperature, relative humidity 80%): 2.4%
- Crystal Form [4, 7]: Form X + II
- Solvent content [4, 7]: 0.7%
- Solvent content ([4]; As is (before storage)): 1.9 (water content 1.9) %
- water content ([4]; As is (before storage)): 1.9 (water content 1.9) %
- Form conversion ([4]; at 100% RH): some of Form X converts to Form II
- Stability ([4]; between 0-80% RH): stable
